# Target: T1, human S1P1 receptor (Homo sapiens, UniProt P21453)
# T1 construct: expressed in transfected cells; membranes were used
# Assay: GTP γ35S binding assay for S1P1 activity
# Assay type: biochemical
# Settings: membranes of cells stably expressing the S1P1 receptor, read-out: Activity potency: S1P1 receptor from GTP γ35S, S1P1 EC50
# Method: Compounds were tested for S1P1 activity using the GTP γ^35S binding assay. These compounds may be assessed for their ability to activate or block activation of the human S1P1 receptor in cells stably expressing the S1P1 receptor.
# GTP γ^35S binding was measured in the medium containing (mM) HEPES 25, pH 7.4, MgCl2 10, NaCl 100, dithitothreitol 0.5, digitonin 0.003%, 0.2 nM GTP γ^355, and 5 μg membrane protein in a volume of 150 μl. Test compounds were included in the concentration range from 0.08 to 5,000 nM unless indicated otherwise. Membranes were incubated with 100 μM 5′-adenylylimmidodiphosphate for 30 min, and subsequently with 10 μM GDP for 10 min on ice. Drug solutions and membrane were mixed, and then reactions were initiated by adding GTP γ^355 and continued for 30 min at 25° C. Reaction mixtures were filtered over Whatman GF/B filters under vacuum, and washed three times with 3 mL of ice-cold buffer (HEPES 25, pH7.4, MgCl2 10 and NaCl 100). Filters were dried and mixed with scintillant, and counted for ^35S activity using a 8-counter. Agonist-induced GTP γ^355 binding was obtained by subtracting that in the absence of agonist. Binding data were analyzed using a non-linear regression method. In case of antagonist assay, the reaction mixture contained 10 nM S1P in the presence of test antagonist at concentrations ranging from 0.08 to 5000 nM.
# T1 sequence (P21453 whole entry): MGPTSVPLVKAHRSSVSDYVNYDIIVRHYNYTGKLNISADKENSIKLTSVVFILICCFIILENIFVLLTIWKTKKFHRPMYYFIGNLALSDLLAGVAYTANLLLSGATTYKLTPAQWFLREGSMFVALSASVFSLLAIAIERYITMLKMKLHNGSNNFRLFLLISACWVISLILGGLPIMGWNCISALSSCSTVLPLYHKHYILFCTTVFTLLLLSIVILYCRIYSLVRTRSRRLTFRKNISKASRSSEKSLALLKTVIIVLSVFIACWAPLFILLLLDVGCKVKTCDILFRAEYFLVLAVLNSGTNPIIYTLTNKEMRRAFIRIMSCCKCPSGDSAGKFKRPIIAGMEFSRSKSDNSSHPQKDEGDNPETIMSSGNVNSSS
row,Compound,EC50 [nM]
1,"O=P(O)(O)CCCNCc1ccc(SCCCCCc2ccccc2)cc1C(F)(F)F [Compound 3, [3-({4-[(5-phenylpentyl)thio]-2-(trifluoromethyl)benzyl}amino)propyl]phosphonic acid]",13.6
2,"O=P(O)(O)CCCNCc1ccc(SCCCCCc2ccccc2)cc1Cl [Compound 4, [3-({2-chloro-4-[(5-phenylpentyl)thio]benzyl}amino)propyl]phosphonic acid]",2.2
3,"O=P(O)(O)CCCNCc1ccc(SCCCCCc2ccccc2)c(Cl)c1 [Compound 5, [3-({3-chloro-4-[(5-phenylpentyl)thio]benzyl}amino)propyl]phosphonic acid]",1.5
4,"O=P(O)(O)CCCNCc1ccc(SCCCCCc2ccccc2)cc1 [Compound 6, [3-({4-[(5-phenylpentyl)thio]benzyl}amino)propyl]phosphonic acid]",3.3
5,"O=P(O)(O)CCCNCc1ccc(SCCCCCc2ccccc2)c(OC(F)(F)F)c1 [Compound 7, [3-({4-[(5-phenylpentyl)thio]-3-(trifluoromethoxy)benzyl}amino)propyl]phosphonic acid]",0.6
6,"N#Cc1cc(CNCCCP(=O)(O)O)ccc1SCCCCCc1ccccc1 [Compound 8, [3-({3-cyano-4-[(5-phenylpentyl)thio]benzyl}amino)propyl]phosphonic acid]",6.1
7,"Cc1cc(CNCCCP(=O)(O)O)ccc1SCCCCCc1ccc(F)cc1 [Compound 9, {3-[(4-{[5-(4-fluorophenyl)pentyl]thio}-3-methylbenzyl)amino]propyl}phosphonic acid]",27.2
8,"O=P(O)(O)CCCNCc1ccc(SCCCCCc2ccc(F)cc2)c(C(F)(F)F)c1 [Compound 10, (3-{[4-{[5-(4-fluorophenyl)pentyl]thio}-3-(trifluoromethyl)benzyl]amino}propyl)phosphonic acid]",5.4
9,"COc1ccc(CCCCCSc2ccc(CNCCCP(=O)(O)O)cc2C(F)(F)F)cc1 [Compound 11, (3-{[4-{[5-(4-methoxyphenyl)pentyl]thio}-3-(trifluoromethyl)benzyl]amino}propyl)phosphonic acid]",60.6
10,"O=P(O)(O)CCCNCc1ccc(SCCCCCc2ccc(Cl)cc2)c(C(F)(F)F)c1 [Compound 13, (3-{[4-{[5-(4-chlorophenyl)pentyl]thio}-3-(trifluoromethyl)benzyl]amino}propyl)phosphonic acid]",4.6
11,"O=P(O)(O)CCCNCc1ccc(SCCCCCc2ccc(Cl)cc2)c(OC(F)(F)F)c1 [Compound 14, (3-{[4-{[5-(4-chlorophenyl)pentyl]thio}-3-(trifluoromethoxy)benzyl]amino}propyl)phosphonic acid]",7.9
12,"O=P(O)(O)CCCNCc1ccc(SCCCCCc2ccc(F)cc2)c(OC(F)(F)F)c1 [Compound 15, (3-{[4-{[5-(4-fluorophenyl)pentyl]thio}-3-(trifluoromethoxy)benzyl]amino}propyl)phosphonic acid]",1.6
13,"Cc1ccc(CCCCCSc2ccc(CNCCCP(=O)(O)O)cc2OC(F)(F)F)cc1 [Compound 16, (3-{[4-{[5-(4-methylphenyl)pentyl]thio}-3 (trifluoromethoxy)benzyl]amino}propyl)phosphonic acid]",3.5
14,"O=P(O)(O)C(F)(F)CCNCc1ccc(SCCCCCc2ccccc2)c(Cl)c1 [Compound 17, [3-({3-chloro-4-[(5-phenylpentyl)thio]benzyl}amino)-1,1-difluoropropyl]phosphonic acid]",4.8
15,"O=P(O)(O)C(F)(F)CCNCc1ccc(SCCCCCc2ccccc2)c(OC(F)(F)F)c1 [Compound 18, [1,1-difluoro-3-({4-[(5-phenylpentyl)thio]-3-(trifluoromethoxy)benzyl}amino)propyl]phosphonic acid]",13.6
16,"CC(CCNCc1ccc(SCCCCCc2ccccc2)c(Cl)c1)P(=O)(O)O (stereo not drawn) [Compound 19, [3-({3-chloro-4-[(5-phenylpentyl)thio]benzyl}amino)-1-methylpropyl]phosphonic acid]",8.8
17,"Cc1cc(CNCCCP(=O)(O)O)ccc1SCCCCCc1ccccc1 [Compound 20, [3-({3-methyl-4-[(5-phenylpentyl)thio]benzyl}amino)propyl]phosphonic acid]",3.2
18,"O=P(O)(O)CCCNCc1ccc(SCCCCCc2ccccc2)c(F)c1 [Compound 21, [3-({3-fluoro-4-[(5-phenylpentyl)thio]benzyl}amino)propyl]phosphonic acid]",0.3

# The next lines start with the values.
row,EC50 [nM],Compound
1,2.4,"N#Cc1cc(CNCCCP(=O)(O)O)ccc1SCCCCCc1ccc(F)cc1 [Compound 22, {3-[(3-cyano-4-{[5-(4-fluorophenyl)pentyl]thio}benzyl)amino]propyl}phosphonic acid]"
2,41.4,"Cc1ccc(CCCCCSc2ccc(CNCCCP(=O)(O)O)cc2C)cc1 [Compound 23, {3-[(3-methyl-4-{[5-(4-methylphenyl)pentyl]thio}benzyl)amino]propyl}phosphonic acid]"
3,8.7,"O=P(O)(O)CCCNCc1ccc(SCCCCCc2ccc(F)cc2)cc1C(F)(F)F [Compound 24, (3-{[4-{[5-(4-fluorophenyl)pentyl]thio}-2-(trifluoromethyl)benzyl]amino}propyl)phosphonic acid]"
4,0.9,"O=P(O)(O)CCCNCc1cc(F)c(SCCCCC2(c3ccccc3)CCCCC2)cc1F [Compound 50, {3-[(2,5-difluoro-4-{[4-(1-phenylcyclohexyl)butyl]thio}benzyl)amino]propyl}phosphonic acid]"
5,67.9,"COc1ccc(CCCCCSc2ccc(CNCCCP(=O)(O)O)cc2OC(F)(F)F)cc1 [Compound 163, (3-{[4-{[5-(4-methoxyphenyl)pentyl]thio}-3-(trifluoromethoxy)benzyl]amino}propyl)phosphonic acid]"
6,2,"O=P(O)(O)CCCNCc1ccc(SCCCCC2(c3ccccc3)CCCCC2)c(Cl)c1 [Compound 164, {3-[(3-chloro-4-{[4-(1-phenylcyclohexyl)butyl]thio}benzyl)amino]propyl}phosphonic acid]"
7,13.1,"CC(C)(CCCCSc1ccc(CNCCCP(=O)(O)O)cc1Br)c1ccccc1 [Compound 165, [3-({3-bromo-4-[(5-methyl-5-phenylhexyl)thio]benzyl}amino)propyl]phosphonic acid]"
8,1.8,"O=P(O)(O)CCCNCc1ccc(SCCCCCc2ccccc2)c(Br)c1 [Compound-1, [3-({3-bromo-4-[(5-phenylpentyl)thio]benzyl}amino)propyl]phosphonic acid]"

# System: blood lymphocytes
# Assay: Lymphopenia assay in mice
# Assay type: in vivo
# Settings: 10 mg/Kg subcutaneously, female C57BL6 mice, after 5 hours, FIG. 1
# Method: Test drugs are prepared in a solution containing 3% (w/v) 2-hydroxy propyl β-cyclodextrin (HPBCD) and 1% DMSO to a final concentration of 1 mg/ml, and subcutaneously injected to female C57BL6 mice (CHARLES RIVERS) weighing 20-25 g at the dose of 0.5 to 10 mg/Kg. Blood samples are obtained by puncturing the submandibular skin with a Goldenrod animal lancet at 5, 24, 48, 72, and 96 hrs post drug application. Blood is collected into microvettes (SARSTEDT) containing EDTA tripotassium salt. Lymphocytes in blood samples are counted using a HEMAVET Multispecies Hematology System, HEMAVET HV950FS (Drew Scientific Inc.).
# A lymphopenia assay in mice; as previously described, was employed to measure the in vivo blood lymphocyte depletion after dosing with the test compound: [3-({3-bromo-4-[(5-phenylpentyl)thio]benzyl}amino)propyl]phosphonic acid Compound-1. This S1P1 modulator, [3-({3-bromo-4-[(5-phenylpentyl)thio]benzyl}amino)propyl]phosphonic acid Compound-1 is useful for S1P-related diseases and exemplified by the lymphopenia in vivo response. […] Lymphocytes in blood samples were counted using a HEMAVET Multispecies Hematology System, HEMAVET HV950FS (Drew Scientific Inc.). […]
row,Compound,lymphocyte count (number of lymphocytes in blood)
1,"O=P(O)(O)CCCNCc1ccc(SCCCCCc2ccccc2)c(Br)c1 [Compound-1, [3-({3-bromo-4-[(5-phenylpentyl)thio]benzyl}amino)propyl]phosphonic acid]",< 1 10^3/μL blood

# Reference: patent US20140171393A1, “NOVEL AROMATIC THIO COMPOUNDS AS RECEPTOR MODULATORS” (Allergan, Inc., priority 2012, published 2014)
